Entries after “also recorded” stand apart in the source; their conditions may differ. Like-named read-outs stand apart in the source and are kept apart here.
What was measured:
[1] = Plasma protein binding by ultrafiltration; assay type: in vitro ADME; details: rat plasma, 10 μM compound
Experimental: Rat plasma (500 μl) was spiked with 10 μM of compound in 1% dimethylsulfoxide and the sample loaded onto a Microcon YM-30 Centrifugal Filter (Millipore Corp., Bedford, Mass., USA) and centrifuged at 13,500 g for 30 minutes at room temperature. The retentate was collected by inverting the filter into an Eppendorf tube and spinning at 13,500 g for 15 minutes.

[2] = test system: L-NAME-treated moderately hypertensive mice; experiment: Telemetry in L-NAME-treated hypertensive mice; assay type: in vivo, mouse
Experimental: Telemetry. […] Maximal injection volume was ≤600 μl. […] Data were analyzed using the DSI software.
In contrast, SKA-121 at 100 mg/kg produced a significant drop in MAP by ˜25 mm Hg over 6 h.

hNaV1.7 = target: T1, hNaV1.7 (Homo sapiens, UniProt Q15858); experiment: NaV1.7 current inhibition (CHO cells); assay type: cell-based
T1 construct: host or cells: CHO (division arrested)

wild-type mice = experiment: Telemetry of blood pressure and heart rate in wild-type mice; assay type: in vivo; details: for mean arterial blood pressure: FIG. 6A
Experimental: Telemetry. […] . […] . […] . […] . Maximal injection volume was ≤600 μl. […] . […] Data were analyzed using the DSI software.
. […] . The blood pressure drop was accompanied by a severe reduction of heart rate (HR) by ˜400 bpm (FIG. 6A left). To avoid fatal hypothermia or circulatory collapse, we handled these severely bradycardic mice for ˜2 h and increased RT to 34° C. As shown in FIG. 6A these maneuvers increased MAP transiently, presumably because of a sympathetic input on total peripheral resistance, but not HR and the low HR persisted over another 10 h before the mice slowly recovered (FIG. 6A left). […] However, this drop was more transient and lasted for ˜3 h.

hCaV1.2 = target: T2, hCaV1.2 (Homo sapiens, UniProt Q13936); experiment: CaV1.2 current inhibition (HEK-293); assay type: cell-based; details: HEK293
T2 construct: host or cells: HEK-293

mNaV1.2 = target: T3, mNaV1.2 (Mus musculus, UniProt B1AWN6); experiment: NaV1.2 current inhibition (N1E-115 cells); assay type: cell-based
T3 construct: NaV1.2 currents from N1E-115 cells; host or cells: N1E-115 mouse neuroblastoma

human KCa2.3 = target: T4, human KCa2.3 (Homo sapiens, UniProt Q9UGI6); experiment: Manual whole-cell patch-clamp KCa2.3 activation (COS-7); assay type: cell-based
T4 construct: The cloning of hKCa2.3 (19 CAG repeats) and hKCa3.1 has been previously described (Wulff et al., 2000)
From the text: Cells, Cell lines and Clones. […] The cloning of hKCa2.3 (19 CAG repeats) and hKCa3.1 has been previously described (Wulff et al., 2000). The hKCa2.3 clone was later stably expressed in COS-7 cells at Aurora Biosciences Corp., San Diego, Calif. Cell lines stably expressing other mammalian ion channels were gifts from several sources: hKCa1.1 in HEK-293 cells (Andrew Tinker, University College London); hKV2.1 in HEK293 cells (James Trimmer, UC Davis); KV11.1 (HERG) in HEK-293 cells (Craig January, University of Wisconsin, Madison); hNaV1.4 in HEK-293 cells (Frank Lehmann-Horn, University of Ulm, Germany), hNaV1.5 in HEK-293 cells (Christopher Lossin, University of California Davis), and hCaV1.2 in HEK-293 cells (Franz Hofmann, Munich, Germany).
Electrophysiology. Experiments were conducted either manually with an EPC-10 amplifier (HEKA, Lambrecht/Pfalz, Germany) or on a QPatch-16 automated electrophysiology platform (Sophion Biosciences, Denmark). […] Patch pipettes were pulled from soda lime glass (micro-hematocrit tubes, Kimble Chase, Rochester, N.Y.) and had resistances of 2-3 MΩ. […] Free Ca^2+ concentrations were calculated with MaxChelator assuming a temperature of 25° C., a pH of 7.2 and an ionic strength of 160 mM. […] Na^+ aspartate Ringer was used as an external solution (in mM): 160 Na^+ aspartate, 4.5 KCl, 2 CaCl2, 1 MgCl2, 5 HEPES, pH 7.4, 290-310 mOsm. […] Reduction of both peak and tail current by the drug was determined. NaV1.7 currents were recorded with 30 ms pulses from −90 mV to −10 mV every 10 sec with a CsF-based pipette solution and normal Ringer as an external solution. CaV1.2 currents were elicited by 100-ms depolarizing pulses from −80 to 20 mV every 10 sec with a CsCl-based pipette solution and an external solution containing 30 mM BaCl2. Blockade of both Na^+ and Ca^2+ currents was determined as reduction of the current minimum.
For all electrophysiology experiments solutions of benzothiazoles and benzooxazoles were always freshly prepared from 1 mM or 10 mM stock solutions in DMSO during the experiment. The final DMSO concentration never exceeded 1%. For automated assays glass vial inserts (Sophion Biosciences, Denmark) were filled with 350-400 μL of compound solution and placed into the glass insert base plate for use in the QPatch assay right before starting the QPatch.
The compounds synthesized by these methods as well as five commercially available compounds were tested for their KCa2.3 and KCa3.1 activating activity using either manual or automated whole-cell patch-clamp. Our group previously described the establishment of a QPatch assay for KCa3.1 modulators. […] We here made use of this assay and determined EC50 values for KCa3.1 activation using HEK-293 cells stably expressing human KCa3.1. Activities on human KCa2.3 were determined by manual electrophysioiogy since we currently only have KCa2.3 available in COS-7 cells, which are difficult to handle on the QPatch.

T4 sequence (Q9UGI6 with tags, fused parts or gaps DUP76-80): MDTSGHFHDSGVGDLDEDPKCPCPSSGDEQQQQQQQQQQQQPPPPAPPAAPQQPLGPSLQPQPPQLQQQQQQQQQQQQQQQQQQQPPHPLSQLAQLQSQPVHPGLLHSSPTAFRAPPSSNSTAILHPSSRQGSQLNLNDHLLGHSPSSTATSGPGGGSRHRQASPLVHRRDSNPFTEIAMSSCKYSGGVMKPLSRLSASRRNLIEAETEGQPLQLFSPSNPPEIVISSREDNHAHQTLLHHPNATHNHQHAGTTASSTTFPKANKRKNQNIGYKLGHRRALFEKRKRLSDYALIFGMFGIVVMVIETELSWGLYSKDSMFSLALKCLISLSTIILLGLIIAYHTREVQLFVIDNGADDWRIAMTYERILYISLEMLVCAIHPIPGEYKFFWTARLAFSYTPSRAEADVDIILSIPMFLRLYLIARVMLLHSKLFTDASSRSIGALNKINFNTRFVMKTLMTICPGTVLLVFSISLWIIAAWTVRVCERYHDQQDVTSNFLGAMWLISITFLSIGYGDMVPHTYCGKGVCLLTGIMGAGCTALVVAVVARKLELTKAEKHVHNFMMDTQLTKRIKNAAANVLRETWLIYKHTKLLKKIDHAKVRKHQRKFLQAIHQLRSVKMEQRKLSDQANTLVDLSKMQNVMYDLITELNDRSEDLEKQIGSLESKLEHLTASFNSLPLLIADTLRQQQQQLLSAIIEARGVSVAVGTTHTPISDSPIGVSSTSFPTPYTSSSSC
T2 sequence (Q13936 whole entry): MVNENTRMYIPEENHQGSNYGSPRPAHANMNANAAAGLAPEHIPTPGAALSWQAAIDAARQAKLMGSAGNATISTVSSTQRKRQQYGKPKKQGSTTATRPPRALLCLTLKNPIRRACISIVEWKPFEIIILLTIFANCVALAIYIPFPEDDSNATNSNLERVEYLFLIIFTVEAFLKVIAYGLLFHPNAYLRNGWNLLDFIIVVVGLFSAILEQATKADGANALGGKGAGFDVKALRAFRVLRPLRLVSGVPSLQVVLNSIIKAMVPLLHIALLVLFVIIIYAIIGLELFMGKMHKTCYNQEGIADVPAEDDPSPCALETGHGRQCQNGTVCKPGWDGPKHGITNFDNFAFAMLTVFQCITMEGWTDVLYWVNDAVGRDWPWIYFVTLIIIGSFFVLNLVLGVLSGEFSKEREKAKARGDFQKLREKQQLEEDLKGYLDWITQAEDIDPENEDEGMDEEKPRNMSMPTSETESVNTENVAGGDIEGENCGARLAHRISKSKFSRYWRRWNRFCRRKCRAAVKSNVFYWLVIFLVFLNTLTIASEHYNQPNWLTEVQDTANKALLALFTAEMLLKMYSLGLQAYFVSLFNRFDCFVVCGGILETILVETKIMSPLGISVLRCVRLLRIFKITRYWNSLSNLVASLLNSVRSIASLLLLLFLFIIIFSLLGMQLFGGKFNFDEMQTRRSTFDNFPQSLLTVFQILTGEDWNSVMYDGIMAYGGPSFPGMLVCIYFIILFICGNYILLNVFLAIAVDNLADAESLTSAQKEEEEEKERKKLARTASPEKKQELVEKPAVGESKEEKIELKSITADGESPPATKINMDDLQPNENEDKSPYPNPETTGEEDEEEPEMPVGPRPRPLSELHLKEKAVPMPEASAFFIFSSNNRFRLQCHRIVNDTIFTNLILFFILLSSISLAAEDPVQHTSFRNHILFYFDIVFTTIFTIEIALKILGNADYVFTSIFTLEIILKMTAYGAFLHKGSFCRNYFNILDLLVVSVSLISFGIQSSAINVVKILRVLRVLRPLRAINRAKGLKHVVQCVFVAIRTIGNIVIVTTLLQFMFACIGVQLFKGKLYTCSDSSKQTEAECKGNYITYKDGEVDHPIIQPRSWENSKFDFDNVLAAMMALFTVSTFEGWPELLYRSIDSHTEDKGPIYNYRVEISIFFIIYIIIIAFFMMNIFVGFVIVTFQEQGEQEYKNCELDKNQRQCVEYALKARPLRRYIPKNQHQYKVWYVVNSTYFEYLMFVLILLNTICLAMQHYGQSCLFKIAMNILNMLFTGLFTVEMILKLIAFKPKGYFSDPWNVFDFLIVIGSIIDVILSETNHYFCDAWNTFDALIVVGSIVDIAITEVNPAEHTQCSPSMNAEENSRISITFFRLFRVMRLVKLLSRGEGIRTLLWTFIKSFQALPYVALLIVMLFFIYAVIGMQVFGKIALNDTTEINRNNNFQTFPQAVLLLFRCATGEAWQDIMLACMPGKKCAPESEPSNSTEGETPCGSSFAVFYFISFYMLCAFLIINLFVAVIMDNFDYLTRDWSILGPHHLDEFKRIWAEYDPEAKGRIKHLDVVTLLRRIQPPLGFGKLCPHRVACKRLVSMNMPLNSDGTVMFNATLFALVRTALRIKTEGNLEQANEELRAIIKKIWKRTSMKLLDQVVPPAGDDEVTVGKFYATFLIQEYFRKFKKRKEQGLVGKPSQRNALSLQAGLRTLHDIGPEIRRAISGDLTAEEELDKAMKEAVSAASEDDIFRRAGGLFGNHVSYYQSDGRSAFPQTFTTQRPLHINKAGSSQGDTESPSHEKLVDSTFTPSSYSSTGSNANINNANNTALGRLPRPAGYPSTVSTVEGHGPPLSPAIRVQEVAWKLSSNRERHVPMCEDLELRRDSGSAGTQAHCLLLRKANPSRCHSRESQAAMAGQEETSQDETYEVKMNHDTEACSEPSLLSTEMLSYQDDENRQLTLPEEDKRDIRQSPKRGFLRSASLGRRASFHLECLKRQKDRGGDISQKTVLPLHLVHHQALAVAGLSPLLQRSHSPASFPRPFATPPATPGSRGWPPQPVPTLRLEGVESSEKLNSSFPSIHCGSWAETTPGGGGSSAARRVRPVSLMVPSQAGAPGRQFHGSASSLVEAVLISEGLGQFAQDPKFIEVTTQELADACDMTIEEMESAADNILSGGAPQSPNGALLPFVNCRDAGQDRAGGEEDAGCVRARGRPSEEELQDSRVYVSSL
T1 sequence (Q15858 whole entry): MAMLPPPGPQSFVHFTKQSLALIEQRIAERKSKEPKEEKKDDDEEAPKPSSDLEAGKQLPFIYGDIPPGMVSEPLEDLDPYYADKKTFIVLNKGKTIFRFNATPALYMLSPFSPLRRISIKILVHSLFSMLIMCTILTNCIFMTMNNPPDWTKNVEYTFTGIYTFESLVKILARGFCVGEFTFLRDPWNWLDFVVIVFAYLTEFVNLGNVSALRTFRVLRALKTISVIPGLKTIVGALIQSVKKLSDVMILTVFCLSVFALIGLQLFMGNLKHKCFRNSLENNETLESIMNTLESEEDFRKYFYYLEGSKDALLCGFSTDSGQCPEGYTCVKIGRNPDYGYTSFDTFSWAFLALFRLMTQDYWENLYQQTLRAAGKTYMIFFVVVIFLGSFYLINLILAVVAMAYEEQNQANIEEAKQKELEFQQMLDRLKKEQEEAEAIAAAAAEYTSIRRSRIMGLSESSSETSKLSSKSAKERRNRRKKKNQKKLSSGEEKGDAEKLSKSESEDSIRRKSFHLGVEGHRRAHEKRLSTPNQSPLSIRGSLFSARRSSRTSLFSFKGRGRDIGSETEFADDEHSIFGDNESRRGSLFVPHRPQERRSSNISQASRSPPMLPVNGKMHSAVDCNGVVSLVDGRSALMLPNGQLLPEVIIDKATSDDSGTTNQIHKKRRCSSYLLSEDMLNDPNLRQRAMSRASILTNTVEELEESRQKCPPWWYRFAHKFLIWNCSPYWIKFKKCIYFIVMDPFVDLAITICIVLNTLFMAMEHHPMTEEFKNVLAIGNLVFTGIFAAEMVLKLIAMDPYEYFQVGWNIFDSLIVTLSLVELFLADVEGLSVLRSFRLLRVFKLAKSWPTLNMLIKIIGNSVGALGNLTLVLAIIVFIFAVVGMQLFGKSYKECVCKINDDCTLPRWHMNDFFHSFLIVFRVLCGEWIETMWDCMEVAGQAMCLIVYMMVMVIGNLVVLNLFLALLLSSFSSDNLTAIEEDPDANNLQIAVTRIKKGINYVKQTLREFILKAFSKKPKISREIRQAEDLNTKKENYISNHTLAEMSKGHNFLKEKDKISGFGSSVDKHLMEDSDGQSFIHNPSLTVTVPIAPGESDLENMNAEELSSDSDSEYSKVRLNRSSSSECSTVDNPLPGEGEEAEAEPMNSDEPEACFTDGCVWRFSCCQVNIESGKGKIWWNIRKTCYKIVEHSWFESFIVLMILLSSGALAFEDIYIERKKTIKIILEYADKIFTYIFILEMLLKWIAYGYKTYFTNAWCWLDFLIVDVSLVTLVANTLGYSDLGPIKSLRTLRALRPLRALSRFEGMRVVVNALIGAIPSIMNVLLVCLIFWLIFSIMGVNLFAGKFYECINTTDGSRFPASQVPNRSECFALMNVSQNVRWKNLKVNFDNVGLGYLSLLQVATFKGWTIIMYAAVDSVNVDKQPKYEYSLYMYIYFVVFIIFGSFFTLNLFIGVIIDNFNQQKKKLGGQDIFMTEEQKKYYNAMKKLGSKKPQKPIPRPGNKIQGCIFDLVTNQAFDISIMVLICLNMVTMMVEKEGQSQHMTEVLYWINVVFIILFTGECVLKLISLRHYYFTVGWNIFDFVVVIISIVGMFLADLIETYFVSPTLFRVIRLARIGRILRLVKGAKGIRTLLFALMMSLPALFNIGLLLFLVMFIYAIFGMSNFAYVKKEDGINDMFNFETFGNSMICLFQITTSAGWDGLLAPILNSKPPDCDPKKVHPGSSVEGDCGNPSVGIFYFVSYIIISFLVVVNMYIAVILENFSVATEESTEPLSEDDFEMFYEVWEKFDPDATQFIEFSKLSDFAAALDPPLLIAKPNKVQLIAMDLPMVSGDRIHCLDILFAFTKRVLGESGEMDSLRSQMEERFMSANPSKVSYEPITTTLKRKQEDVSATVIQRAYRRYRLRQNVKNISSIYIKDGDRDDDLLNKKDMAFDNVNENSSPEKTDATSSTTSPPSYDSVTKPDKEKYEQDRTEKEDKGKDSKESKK

Cc1cc2sc(N)nc2c2ccccc12 [SKA-111, 5-methylnaphtho[1,2-d]thiazol-2-amine]
fraction unbound at 30 min, 10 μM [1]: 0.41 | HR ([2]; 60 mg/kg i.p.): remained virtually stable; also recorded: only a minor drop | MAP ([2]; 60 mg/kg i.p.): reduced blood pressure; also recorded: only a minor drop | inhibition at 25 µM (hNaV1.7; at 25 μM): 27.5 ± 0.9% | MAP (wild-type mice; 30 mg/kg i.p.): Neither SKA-111 nor SKA-121 caused significant changes; also recorded: did not produce significant alterations | change of HR (wild-type mice; 30 mg/kg i.p.): ~−50 bpm | duration of HR decrease after injection (wild-type mice; 30 mg/kg i.p.): ~2 h | heart rate (wild-type mice; 30 mg/kg i.p., 2 h after injection): moderately reduced heart rate | drop in mean arterial blood pressure (MAP) (wild-type mice; 100 mg/kg i.p.): ~25 mmHg | heart rate (wild-type mice; 100 mg/kg i.p.): severely reduced heart rate | reduction of heart rate (HR) (wild-type mice; 100 mg/kg i.p.): ~400 bpm | mean arterial blood pressure (wild-type mice; 100 mg/kg i.p.): reduced mean arterial blood pressure | inhibition at 25 µM (hCaV1.2; at 25 μM): 49.5 ± 17% | inhibition at 25 µM (mNaV1.2; at 25 μM): 19.5 ± 6.9% | EC50 (human KCa2.3; read-out: EC50 for KCa2.3 activation; 250 nM free Ca2+): 13.7 ± 6.9 µM

Cc1cc2nc(N)oc2c2ccccc12 [SKA-121, 5-Methylnaphtho[2,1-d]oxazol-2-amine]
fraction unbound at 30 min, 10 μM [1]: 0.19 | HR ([2]; 100 mg/kg i.p.): remained virtually stable; also recorded: minor decrease | drop in MAP ([2]; 100 mg/kg i.p.): ~25 mm Hg | duration of MAP drop ([2]; 100 mg/kg i.p.): 6 h | blood pressure ([2]; 100 mg/kg i.p., FIG. 6B): reduced blood pressure | inhibition at 50 µM (hNaV1.7; at 50 μM): 28.5 ± 1.8% | MAP (wild-type mice; 30 mg/kg i.p.): Neither SKA-111 nor SKA-121 caused significant changes; also recorded: did not produce significant alterations | drop in mean arterial blood pressure (MAP) (wild-type mice; 100 mg/kg i.p.): ~20 mmHg | duration of MAP drop (wild-type mice; 100 mg/kg i.p.): ~3 h | heart rate (wild-type mice; 100 mg/kg i.p.): not and only moderately reduced | mean arterial blood pressure (wild-type mice; 100 mg/kg i.p.): reduced mean arterial blood pressure | inhibition at 50 µM (hCaV1.2; at 50 μM): 48.9 ± 2.7% | inhibition at 50 µM (mNaV1.2; at 50 μM): 15.2 ± 12.7% | EC50 (human KCa2.3; 250 nM free Ca2+; read-out: EC50 for KCa2.3 activation): 4.4 ± 2.3 µM | Hill coefficient nH, KCa2.3 concentration-response curve (human KCa2.3; FIG. 4 legend): 1.6 | EC50 (human KCa2.3; Table 1; 250 nM free Ca2+; read-out: KCa2.3 EC50): 4.4 ± 2.6 µM

Source: patent US11173146B2, “Selective activators of the intermediate conductance CA2+activated K+ channel KCa3.1 and their methods of use” (The Regents of the University of California, priority 2014, dated 2021)
